The record followed here is US11702427B2 (priority 2018, dated 2023).

For the first assay, the system named is HBsAg. The experiment in a line: HBsAg assay: inhibition of HBsAg in HepG2.2.15 cells (CLIA immunoassay of supernatant). Type of assay: cell-based, hepatitis B virus (HBV). To be noted: Hepatitis B virus, HepG2.2.15, 144 h, read-out: sAg EC50, HepG2.2.15 cells; supernatant collected at day 6 after exposure; HBsAg chemiluminescence immunoassay. On the procedure: Inhibition of HBsAg was determined in HepG2.2.15 cells. Cells were maintained in culture medium containing 10% fetal calf serum, […], Glutamine, penicillin/streptomycin. Cells were seeded in 96-well collagen-coated plate at a density of 30,000 cells/well. Serially diluted compounds were added to cells next day at the final DMSO concentration of 0.5%. Cells were incubated with compounds for 2-3 days, after which medium was removed. Fresh medium containing compounds was added to cells for additional 3-4 days. At day 6 after exposure of compounds, supernatant was collected, the HBsAg immunoassay (microplate-based chemiluminescence immunoassay kits, CLIA, Autobio Diagnosics Co., Zhengzhou, China, Catalog #CL0310-2) was used to determine the level of HBsAg according to manufactory instruction. Dose-response curves were generated and the EC50 value (effective concentrations that achieved 50% inhibitory effect) were determined using XLfit software. In addition, cells can be seeded at a density of 5,000 cells/well for determination of cell viability in the presence and absence of compounds by using CellTiter-Glo reagent (Promega). Tables 1-3 show EC50 values obtained by the HBsAg assay for selected compounds.
The EC50 is the midpoint of the concentration-response curve. For `CCOc1c2c([nH]c(=O)c1C(=O)O)-c1cc(OC)c(OCCCOC)cc1CC2C(C)C` (stereo not drawn) [Example 91, 4-Ethoxy-5-isopropyl-9-methoxy-8-(3-methoxypropoxy)-2-oxo-1,2,5,6-tetrahydrobenzo[h]quinoline-3-carboxylicacid], the EC50 is 1700 nM.

For the molecule `COCCCOc1cc2c(nc1NCCOC)-c1[nH]c(=O)c(C(=O)NCCOC)c(O)c1C(C(C)C)C2` (stereo not drawn) [Example 52, 4-Hydroxy-5-isopropyl-N-(2-methoxyethyl)-9-((2-methoxyethyl)amino)-8-(3-methoxypropoxy)-2-oxo-1,2,5,6-tetrahydro-1,10-phenanthroline-3-carboxamide], the concentration for a half-maximal effect (EC50) came to 13000 nM.

On to `COCCCOc1cc2c(cc1Cl)-c1[nH]c(=O)c(C(=O)O)c(O)c1C(C)(C(C)C)C2` (stereo not drawn) [Example 14, 9-Chloro-4-hydroxy-5-isopropyl-8-(3-methoxypropoxy)-5-methyl-2-oxo-1,2,5,6-tetrahydrobenzo[h]quinoline-3-carboxylic acid], for which the EC50 amounted to 62 nM.

In the case of `COCCCOc1cc2c(nc1Cl)-c1[nH]c(=O)c(C(=O)O)c(O)c1C(C(C)C)CO2` (stereo not drawn) [Example 74, 2-Chloro-8-hydroxy-7-isopropyl-3-(3-methoxypropoxy)-10-oxo-6,7,10,11-tetrahydrooxepino[3,2-b:4,5-b′]dipyridine-9-carboxylic acid], the half-maximal effective concentration (EC50) is 40 nM.

`COCCCOc1cc2c(cc1OC)-c1[nH]c(=O)c(C(=O)O)c(F)c1C(C(C)C)C2` (stereo not drawn) [Example 17, 4-Fluoro-5-isopropyl-9-methoxy-8-(3-methoxypropoxy)-2-oxo-1,2,5,6-tetrahydrobenzo[h]quinoline-3-carboxylic acid]: the EC50 is 640 nM.

As for `COCCCOc1cc2c(nc1C1CCOCC1)-c1[nH]c(=O)c(C(=O)O)c(O)c1C(C(C)C)CO2` (stereo not drawn) [Example 79, 8-Hydroxy-7-isopropyl-3-(3-methoxypropoxy)-10-oxo-2-(tetrahydro-2H-pyran-4-yl)-6,7,10,11-tetrahydrooxepino[3,2-b:4,5-b′]dipyridine-9-carboxylic acid], the EC50 turned out to be 5000 nM.

As for `COCCCOc1cc2c(cc1C1CCOCC1)-c1[nH]c(=O)c(C(=O)O)c(O)c1[C@H](C(C)C)CO2` [Example 94, (S)-4-Hydroxy-5-isopropyl-9-(3-methoxypropoxy)-2-oxo-10-(tetrahydro-2H-pyran-4-yl)-1,2,5,6-tetrahydrobenzo[2,3]oxepino[4,5-b]pyridine-3-carboxylic acid], the concentration giving a half-maximal response (EC50) came out at 730 nM.

Take `COCCCOc1cc2c(cc1COC)-c1[nH]c(=O)c(C(=O)O)c(O)c1[C@H](C(C)C)CO2` [Example 71, (S)-4-Hydroxy-5-isopropyl-10-(methoxymethyl)-9-(3-methoxypropoxy)-2-oxo-1,2,5,6-tetrahydrobenzo[2,3]oxepino[4,5-b]pyridine-3-carboxylicacid]: the EC50 came to 280 nM.

Take `COCCCOc1cc2c(nc1OC)-c1[nH]c(=O)c(C(=O)O)cc1C(C(C)C)C2` (stereo not drawn) [Example 43, 5-Isopropyl-9-methoxy-8-(3-methoxypropoxy)-2-oxo-1,2,5,6-tetrahydro-1,10-phenanthroline-3-carboxylic acid]: the EC50 was 3 nM.

As to `COCCCOc1cc2c(cc1OC)-c1nc(OC)c(C(=O)O)cc1C(C(C)C)C2` (stereo not drawn) [Example 12, 5-Isopropyl-2,9-dimethoxy-8-(3-methoxypropoxy)-5,6-dihydrobenzo[h]quinoline-3-carboxylicacid], the EC50 was 1200 nM.

Turning to `COCCCOc1cc2c(cc1OC)-c1[nH]c(=O)c(C(=O)O)c(O)c1C(C(C)C)C2` (stereo not drawn) [Example 13, 4-Hydroxy-5-isopropyl-9-methoxy-8-(3-methoxypropoxy)-2-oxo-1,2,5,6-tetrahydrobenzo[h]quinoline-3-carboxylicacid], the EC50 stood at 6 nM.

On to `COCCCOc1cc2c(cc1Cl)-c1[nH]c(=O)c(C(=O)O)c(O)c1[C@H](C(C)C)CO2` [Example 70, (S)-10-Chloro-4-hydroxy-5-isopropyl-9-(3-methoxypropoxy)-2-oxo-1,2,5,6-tetrahydrobenzo[2,3]oxepino[4,5-b]pyridine-3-carboxylic acid], for which the concentration for a half-maximal effect (EC50) was 120 nM.

Consider `COCCCOc1cc2c(cc1Cl)-c1[nH]c(=O)c(C(=O)O)cc1[C@H](C(C)C)CO2` [Example 69, (S)-10-Chloro-5-isopropyl-9-(3-methoxypropoxy)-2-oxo-1,2,5,6-tetrahydrobenzo[2,3]oxepino[4,5-b]pyridine-3-carboxylicacid], for which the 50% effective concentration (EC50) came out at 200 nM.

Turning to `COCCCOc1cc2c(nc1OC)-c1[nH]c(=O)c(C(=O)N(C)C)c(O)c1C(C(C)(C)C)C2` (stereo not drawn) [Example 64], the EC50 came out at 2000 nM.

As to `COCCCOc1cc2c(nc1OC)-c1[nH]c(=O)c(C(=O)O)c(O)c1C(C(C)(C)C)C2` (stereo not drawn) [Example 36, 5-(tert-Butyl)-4-hydroxy-9-methoxy-8-(3-methoxypropoxy)-2-oxo-1,2,5,6-tetrahydro-1,10-phenanthroline-3-carboxylicacid], the EC50 was determined as 1 nM.

Turning to `COCCCOc1cc2c(cc1OC)-c1c(c(O)c(C(=O)O)c(=O)n1Cc1ccccc1)C(C(C)C)C2` (stereo not drawn) [Example 18, 1-Benzyl-4-hydroxy-5-isopropyl-9-methoxy-8-(3-methoxypropoxy)-2-oxo-1,2,5,6-tetrahydrobenzo[h]quinoline-3-carboxylic acid], the EC50 was 15000 nM.

Staying with this assay, now noted: read-out: sAg EC50; HepG2.2.15 cells; supernatant collected at day 6 after exposure; HBsAg chemiluminescence immunoassay.
Regarding `COCCCOc1cc2c(nc1OC)-c1[nH]c(=O)c(C(=O)O)cc1C(C(C)C)C2` (single isomer, unassigned) [Example 45, 5-Isopropyl-9-methoxy-8-(3-methoxypropoxy)-2-oxo-1,2,5,6-tetrahydro-1,10-phenanthroline-3-carboxylic acid], the EC50 is 16 nM.

Turning to `COCCCOc1cc2c(nc1OC)-c1[nH]c(=O)c(C(=O)O)c(O)c1C(C(C)C)C2` (single isomer, unassigned) [Example 34, 4-Hydroxy-5-isopropyl-9-methoxy-8-(3-methoxypropoxy)-2-oxo-1,2,5,6-tetrahydro-1,10-phenanthroline-3-carboxylic acid], the concentration for a half-maximal effect (EC50) is 3 nM.

Turning to `COCCCOc1cc2c(cc1OC)-c1[nH]c(=O)c(C(=O)O)cc1C(C)(C(C)C)C2` (single isomer, unassigned) [Example 7, 5-Isopropyl-9-methoxy-8-(3-methoxypropoxy)-5-methyl-2-oxo-1,6-dihydrobenzo[h]quinoline-3-carboxylic acid], the 50% effective concentration (EC50) was 22 nM.

For the molecule `COCCCOc1cc2c(cc1Cl)-c1[nH]c(=O)c(C(=O)O)c(O)c1C(C)(C(C)C)C2` (single isomer, unassigned) [Example 16, 9-Chloro-4-hydroxy-5-isopropyl-8-(3-methoxypropoxy)-5-methyl-2-oxo-1,2,5,6-tetrahydrobenzo[h]quinoline-3-carboxylic acid], the concentration giving a half-maximal response (EC50) was found to be 2000 nM.

With `COCCCOc1cc2c(cc1Cl)-c1[nH]c(=O)c(C(=O)O)cc1C(C)(C(C)C)C2` (single isomer, unassigned) [Example 10, 9-Chloro-5-isopropyl-8-(3-methoxypropoxy)-5-methyl-2-oxo-1,6-dihydrobenzo[h]quinoline-3-carboxylic acid], the EC50 is 25 nM.

With `COCCCOc1cc2c(nc1OC)-c1[nH]c(=O)c(C(=O)O)c(O)c1C(C(C)(C)C)CO2` (single isomer, unassigned) [Example 86, 7-(tert-Butyl)-8-hydroxy-2-methoxy-3-(3-methoxypropoxy)-10-oxo-6,7,10,11-tetrahydrooxepino[3,2-b:4,5-b′]dipyridine-9-carboxylic acid], the half-maximal effective concentration (EC50) was found to be 30000 nM.

Consider `COCCCOc1cc2c(cc1OC)-c1[nH]c(=O)c(C(=O)O)c(O)c1C(C)(C(C)C)C2` (single isomer, unassigned) [Example 32, 4-Hydroxy-5-isopropyl-9-methoxy-8-(3-methoxypropoxy)-5-methyl-2-oxo-1,2,5,6-tetrahydrobenzo[h]quinoline-3-carboxylic acid], for which the EC50 came to 10000 nM.

As to `CCOc1nc2c(cc1OCCCOC)CC(C(C)C)c1c-2[nH]c(=O)c(C(=O)O)c1O` (single isomer, unassigned) [Example 41, 9-Ethoxy-4-hydroxy-5-isopropyl-8-(3-methoxypropoxy)-2-oxo-1,2,5,6-tetrahydro-1,10-phenanthroline-3-carboxylic acid], the half-maximal effective concentration (EC50) was 1 nM.

`COCCCOc1cc2c(nc1OC)-c1[nH]c(=O)c(C(N)=O)c(O)c1C(C(C)(C)C)C2` (single isomer, unassigned) [Example 60, 5-(tert-Butyl)-4-hydroxy-9-methoxy-8-(3-methoxypropoxy)-2-oxo-1,2,5,6-tetrahydro-1,10-phenanthroline-3-carboxamide]: the concentration giving a half-maximal response (EC50) stood at 2 nM.

Turning to `COCCCOc1cc2c(nc1OC)-c1[nH]c(=O)c(C(=O)O)c(O)c1C(C(C)(C)C)CO2` (single isomer, unassigned) [Example 85, 7-(tert-Butyl)-8-hydroxy-2-methoxy-3-(3-methoxypropoxy)-10-oxo-6,7,10,11-tetrahydrooxepino[3,2-b:4,5-b′]dipyridine-9-carboxylic acid], the EC50 turned out to be 66 nM.

With `COCCCOc1cc2c(cc1OC)-c1[nH]c(=O)c(C(=O)O)cc1C(C)(C(C)C)C2` (single isomer, unassigned) [Example 8, 5-Isopropyl-9-methoxy-8-(3-methoxypropoxy)-5-methyl-2-oxo-1,6-dihydrobenzo[h]quinoline-3-carboxylic acid], the EC50 is 2500 nM.
